Source: article PMC5218480 (PLoS ONE, 2017)

Test system: MV-4-11 cells
Test: Gene expression microarray analysis (Affymetrix PrimeView) and GSEA
Assay type: cell-based, human
Set-up: RFU PODN (11730768_x_at) / Fold change /veh PODN (11730768_x_at) / RFU LINC00158 (11744669_a_at) / Fold change /veh LINC00158 (11744669_a_at) / RFU DUSP10 (11751237_a_at) / Fold change /veh DUSP10 (11751237_a_at) / RFU ID3 (11757404_x_at) / Fold change /veh ID3 (11757404_x_at) / RFU PLEKHG5 (11737974_s_at) / Fold change /veh PLEKHG5 (11737974_s_at) / RFU LRRC4B (11730491_at) / Fold change /veh LRRC4B (11730491_at) / RFU GIMAP4 (11747438_a_at) / Fold change /veh GIMAP4 (11747438_a_at) / RFU KRT8 (11758183_x_at) / Fold change /veh KRT8 (11758183_x_at) / RFU CNN1 (11734310_a_at) / Fold change /veh CNN1 (11734310_a_at) / RFU VPS37D (11726825_at) / Fold change /veh VPS37D (11726825_at) / RFU C10orf10 (11716522_x_at) / Fold change /veh C10orf10 (11716522_x_at) / RFU KIR2DL2 /// KIR2DL4 /// KIR2DL5A /// KIR2DL5B /// KIR2DS1 /// KIR2DS2 /// KIR2DS3 /// KIR2DS4 /// KIR3DL3 /// KIR3DL3 /// KIR3DS1 (11738374_at) / Fold change /veh KIR2DL2 /// KIR2DL4 /// KIR2DL5A /// KIR2DL5B /// KIR2DS1 /// KIR2DS2 /// KIR2DS3 /// KIR2DS4 /// KIR3DL3 /// KIR3DL3 /// KIR3DS1 (11738374_at) / RFU C1QL1 (11718748_at) / Fold change /veh C1QL1 (11718748_at) / RFU TMPRSS4 (11747572_a_at) / Fold change /veh TMPRSS4 (11747572_a_at) / RFU HAMP (11756126_x_at) / Fold change /veh HAMP (11756126_x_at) / RFU RNFT2 (11725882_a_at) / Fold change /veh RNFT2 (11725882_a_at) / RFU NR4A2 (11747474_a_at) / Fold change /veh NR4A2 (11747474_a_at) / RFU ABCC12 (11746883_a_at) / Fold change /veh ABCC12 (11746883_a_at) / RFU TMEM136 (11760407_x_at) / Fold change /veh TMEM136 (11760407_x_at) / RFU CLDN22 /// WWC2 (11732394_at) / Fold change /veh CLDN22 /// WWC2 (11732394_at) / RFU HLA-DPB1 (11760878_x_at) / Fold change /veh HLA-DPB1 (11760878_x_at) / RFU SPINT1 (11716480_a_at) / Fold change /veh SPINT1 (11716480_a_at) / RFU GAP43 (11754022_s_at) / Fold change /veh GAP43 (11754022_s_at) / RFU A4GNT (11735810_at) / Fold change /veh A4GNT (11735810_at) / RFU PRB3 (11715151_x_at) / Fold change /veh PRB3 (11715151_x_at) / RFU TUBB4B (11761932_at) / Fold change /veh TUBB4B (11761932_at) / RFU CAPN14 (11732068_a_at) / Fold change /veh CAPN14 (11732068_a_at) / RFU TMCC2 (11721928_a_at) / Fold change /veh TMCC2 (11721928_a_at) / RFU IRGQ (11745062_a_at) / Fold change /veh IRGQ (11745062_a_at) / RFU FAM174B (11720279_a_at) / Fold change /veh FAM174B (11720279_a_at) / RFU TMPRSS4 (11748680_a_at) / Fold change /veh TMPRSS4 (11748680_a_at) / RFU FAM212B (11763350_a_at) / Fold change /veh FAM212B (11763350_a_at) / RFU PLEKHG5 (11743358_a_at) / Fold change /veh PLEKHG5 (11743358_a_at) / RFU ZSCAN30 (11745921_a_at) / Fold change /veh ZSCAN30 (11745921_a_at) / RFU CMKLR1 (11741424_a_at) / Fold change /veh CMKLR1 (11741424_a_at) / RFU LOC101060620 /// MAPK8IP1 (11723275_at) / Fold change /veh LOC101060620 /// MAPK8IP1 (11723275_at) / RFU SPTSSB (11747773_x_at) / Fold change /veh SPTSSB (11747773_x_at) / RFU PRSS12 (11739890_at) / Fold change /veh PRSS12 (11739890_at) / RFU BIN1 (11741810_x_at) / Fold change /veh BIN1 (11741810_x_at) / RFU WNT11 (11732464_a_at) / Fold change /veh WNT11 (11732464_a_at) / RFU C10orf10 (11716521_a_at) / Fold change /veh C10orf10 (11716521_a_at) / RFU C5orf56 (11738089_at) / Fold change /veh C5orf56 (11738089_at) / RFU CYB561 (11721691_x_at) / Fold change /veh CYB561 (11721691_x_at) / RFU ANKRD19P (11752326_a_at) / Fold change /veh ANKRD19P (11752326_a_at) / RFU OR2T12 /// OR2T33 /// OR2T8 (11738714_s_at) / Fold change /veh OR2T12 /// OR2T33 /// OR2T8 (11738714_s_at) / RFU VCAN (11748164_a_at) / Fold change /veh VCAN (11748164_a_at) / RFU JSRP1 (11732532_at) / Fold change /veh JSRP1 (11732532_at) / RFU KRTAP10-11 (11738290_x_at) / Fold change /veh KRTAP10-11 (11738290_x_at) / RFU MYO3A (11730013_a_at) / Fold change /veh MYO3A (11730013_a_at) / RFU EBF3 (11725865_a_at) / Fold change /veh EBF3 (11725865_a_at) / RFU CAMK2N1 (11719241_x_at) / Fold change /veh CAMK2N1 (11719241_x_at) / RFU C5orf56 (11738088_a_at) / Fold change /veh C5orf56 (11738088_a_at) / RFU OLFML3 (11715873_a_at) / Fold change /veh OLFML3 (11715873_a_at) / RFU LOC100653217 /// NTM (11731650_a_at) / Fold change /veh LOC100653217 /// NTM (11731650_a_at) / RFU MAPK11 (11762145_a_at) / Fold change /veh MAPK11 (11762145_a_at) / RFU FIZ1 (11724087_x_at) / Fold change /veh FIZ1 (11724087_x_at) / RFU OASL (11726364_x_at) / Fold change /veh OASL (11726364_x_at) / RFU SOX15 (11748057_x_at) / Fold change /veh SOX15 (11748057_x_at) / RFU CD79A (11719716_a_at) / Fold change /veh CD79A (11719716_a_at) / RFU HIST1H1D (11736915_at) / Fold change /veh HIST1H1D (11736915_at) / RFU CASKIN2 (11723855_a_at) / Fold change /veh CASKIN2 (11723855_a_at) / RFU LOC730098 (11760151_x_at) / Fold change /veh LOC730098 (11760151_x_at) / RFU OR4N2 (11742367_at) / Fold change /veh OR4N2 (11742367_at) / RFU PRRT2 (11749266_a_at) / Fold change /veh PRRT2 (11749266_a_at) / RFU SNX32 (11753110_a_at) / Fold change /veh SNX32 (11753110_a_at) / RFU CDHR5 (11726645_a_at) / Fold change /veh CDHR5 (11726645_a_at) / RFU RCAN1 (11760418_a_at) / Fold change /veh RCAN1 (11760418_a_at) / RFU FAM167A (11723789_a_at) / Fold change /veh FAM167A (11723789_a_at) / RFU FAM26E (11764081_at) / Fold change /veh FAM26E (11764081_at) / RFU ISYNA1 (11749810_s_at) / Fold change /veh ISYNA1 (11749810_s_at) / RFU ACY1 (11761880_at) / Fold change /veh ACY1 (11761880_at) / RFU 11764098_at / Fold change /veh 11764098_at / RFU SAMD14 (11745864_x_at) / Fold change /veh SAMD14 (11745864_x_at) / RFU NPB (11741838_a_at) / Fold change /veh NPB (11741838_a_at) / RFU TMPRSS6 (11731388_a_at) / Fold change /veh TMPRSS6 (11731388_a_at) / RFU KRTAP10-2 (11738614_at) / Fold change /veh KRTAP10-2 (11738614_at) / RFU ARHGAP8 /// PRR5-ARHGAP8 (11727945_x_at) / Fold change /veh ARHGAP8 /// PRR5-ARHGAP8 (11727945_x_at) / RFU KRTAP5-7 /// NADSYN1 (11734609_at) / Fold change /veh KRTAP5-7 /// NADSYN1 (11734609_at) / RFU RASL12 (11751679_a_at) / Fold change /veh RASL12 (11751679_a_at) / RFU CDKN2B (11736163_a_at) / Fold change /veh CDKN2B (11736163_a_at) / RFU PRF1 (11729649_at) / Fold change /veh PRF1 (11729649_at) / RFU, ZNF638 /// ZNF638-IT1 / Fold change vs veh, ZNF638 /// ZNF638-IT1 / RFU, PANK3 / Fold change vs veh, PANK3 / RFU, SH3YL1 / Fold change vs veh, SH3YL1 / RFU, ZEB2 / Fold change vs veh, ZEB2 / RFU, NRIP1 / Fold change vs veh, NRIP1 / RFU, PTTG1IP / Fold change vs veh, PTTG1IP / RFU, CAPN2 / Fold change vs veh, CAPN2 / RFU, MED14 / Fold change vs veh, MED14 / RFU, SNORA58 / Fold change vs veh, SNORA58 / RFU, C1orf63 / Fold change vs veh, C1orf63 / RFU, LRRFIP1 / Fold change vs veh, LRRFIP1 / RFU, NDUFAF7 / Fold change vs veh, NDUFAF7 / RFU, SLC12A2 / Fold change vs veh, SLC12A2 / RFU, IBTK / Fold change vs veh, IBTK / RFU, ESF1 / Fold change vs veh, ESF1 / Fold change vs veh, TMEM50B / RFU, TAOK1 / Fold change vs veh, TAOK1 / RFU, ACBD3 / Fold change vs veh, ACBD3 / RFU, TMA16 / Fold change vs veh, TMA16 / RFU, RWDD3 / Fold change vs veh, RWDD3 / RFU, BCAT1 / Fold change vs veh, BCAT1 / RFU, EDEM3 / Fold change vs veh, EDEM3 / RFU, TMEM33 / Fold change vs veh, TMEM33 / RFU, WDR75 / Fold change vs veh, WDR75 / RFU, AHCTF1 / Fold change vs veh, AHCTF1 / RFU, TFRC / Fold change vs veh, TFRC / RFU, ZDHHC17 / Fold change vs veh, ZDHHC17 / RFU, NOM1 / Fold change vs veh, NOM1 / RFU, ARL8B / Fold change vs veh, ARL8B / RFU, ZBTB11 / Fold change vs veh, ZBTB11 / RFU, TAMM41 / Fold change vs veh, TAMM41 / RFU, KIAA1704 /// LOC100996395 / Fold change vs veh, KIAA1704 /// LOC100996395 / RFU, ING1 / Fold change vs veh, ING1 / RFU, TRMT61B / Fold change vs veh, TRMT61B / RFU, FUBP3 / Fold change vs veh, FUBP3 / RFU, TP53 / Fold change vs veh, TP53 / RFU, TNKS2 / Fold change vs veh, TNKS2 / RFU, ZFP14 / Fold change vs veh, ZFP14 / RFU, ACTR2 / Fold change vs veh, ACTR2 / RFU, PPP3R1 / Fold change vs veh, PPP3R1 / RFU, PIK3R1 / Fold change vs veh, PIK3R1 / RFU, HNRNPA1 / Fold change vs veh, HNRNPA1 / RFU, RNF170 / Fold change vs veh, RNF170 / RFU, ZNF28 / Fold change vs veh, ZNF28 / RFU, RNGTT / Fold change vs veh, RNGTT / RFU, OGT / Fold change vs veh, OGT / RFU, BRD1 / Fold change vs veh, BRD1 / RFU, MARS / Fold change vs veh, MARS / RFU, ZNF655 / Fold change vs veh, ZNF655 / RFU, FAHD1 / Fold change vs veh, FAHD1 / RFU, BDP1 / Fold change vs veh, BDP1 / RFU, LRRCC1 / Fold change vs veh, LRRCC1 / RFU, ARID1A / Fold change vs veh, ARID1A / RFU, ZNF146 / Fold change vs veh, ZNF146 / RFU, ZNF330 / Fold change vs veh, ZNF330 / RFU, GPN3 / Fold change vs veh, GPN3 / RFU, C9orf123 / Fold change vs veh, C9orf123 / RFU, N4BP2L2 / Fold change vs veh, N4BP2L2 / RFU, ARFIP1 / Fold change vs veh, ARFIP1 / RFU, FAM179B / Fold change vs veh, FAM179B / RFU, BCL10 / Fold change vs veh, BCL10 / RFU, UHRF1BP1L / Fold change vs veh, UHRF1BP1L / RFU, BET1 / Fold change vs veh, BET1 / RFU, CNOT2 / Fold change vs veh, CNOT2 / RFU, ZNF268 / Fold change vs veh, ZNF268 / Fold change vs veh, ZNF507 / RFU, DGCR2 / Fold change vs veh, DGCR2 / RFU, WDSUB1 / Fold change vs veh, WDSUB1 / Fold change vs veh, HSP90B1 /// MIR3652 / RFU, ADSS / Fold change vs veh, ADSS / RFU, GK / Fold change vs veh, GK / RFU, ZNF148 / Fold change vs veh, ZNF148 / RFU, TAF9 / Fold change vs veh, TAF9 / RFU, SLC1A5 / Fold change vs veh, SLC1A5 / RFU, SLMO2 / Fold change vs veh, SLMO2 / RFU, ABCC4 / Fold change vs veh, ABCC4 / RFU, LOC101060439 /// RAP1B / Fold change vs veh, LOC101060439 /// RAP1B / RFU, RFX7 / Fold change vs veh, RFX7 / RFU, GTPBP10 / Fold change vs veh, GTPBP10 / RFU, CNEP1R1 / Fold change vs veh, CNEP1R1 / RFU, BIVM-ERCC5 /// ERCC5 / Fold change vs veh, BIVM-ERCC5 /// ERCC5 / RFU, ILF3 / Fold change vs veh, ILF3 / RFU 11762660_at / Fold change /veh 11762660_at / RFU VCAN (11757783_s_at) / Fold change /veh VCAN (11757783_s_at) / RFU DDX43 (11728927_at) / Fold change /veh DDX43 (11728927_at) / RFU KRT8 (11758188_x_at) / Fold change /veh KRT8 (11758188_x_at) / RFU NKD1 (11759106_at) / Fold change /veh NKD1 (11759106_at) / RFU SRD5A1 (11742802_a_at) / Fold change /veh SRD5A1 (11742802_a_at) / RFU TPSAB1 /// TPSB2 (11721975_s_at) / Fold change /veh TPSAB1 /// TPSB2 (11721975_s_at) / RFU GSTM3 (11746129_a_at) / Fold change /veh GSTM3 (11746129_a_at) / RFU IL23R (11737362_x_at) / Fold change /veh IL23R (11737362_x_at) / RFU TMEM51 (11727254_a_at) / Fold change /veh TMEM51 (11727254_a_at) / RFU PIWIL2 (11732686_x_at) / Fold change /veh PIWIL2 (11732686_x_at) / RFU ORM1 (11744905_x_at) / Fold change /veh ORM1 (11744905_x_at) / RFU CCDC152 (11743942_at) / Fold change /veh CCDC152 (11743942_at) / RFU ECM1 (11717891_a_at) / Fold change /veh ECM1 (11717891_a_at) / RFU IL23R (11748794_a_at) / Fold change /veh IL23R (11748794_a_at) / RFU TNFAIP8L3 (11732012_x_at) / Fold change /veh TNFAIP8L3 (11732012_x_at) / RFU MBOAT4 (11741988_at) / Fold change /veh MBOAT4 (11741988_at) / RFU 11764193_at / Fold change /veh 11764193_at / RFU TMEM53 (11763286_at) / Fold change /veh TMEM53 (11763286_at) / RFU MAGEB2 (11727129_at) / Fold change /veh MAGEB2 (11727129_at) / RFU TMEM200A (11744735_a_at) / Fold change /veh TMEM200A (11744735_a_at) / RFU CCDC152 (11751479_a_at) / Fold change /veh CCDC152 (11751479_a_at) / RFU FAM211A (11726209_a_at) / Fold change /veh FAM211A (11726209_a_at) / RFU RGS16 (11746705_a_at) / Fold change /veh RGS16 (11746705_a_at) / RFU VCAN (11755009_s_at) / Fold change /veh VCAN (11755009_s_at) / RFU RHOB (11743442_s_at) / Fold change /veh RHOB (11743442_s_at) / RFU RGS16 (11720943_a_at) / Fold change /veh RGS16 (11720943_a_at) / RFU RGS16 (11720944_at) / Fold change /veh RGS16 (11720944_at) / RFU, VPS4B / Fold change vs veh, VPS4B / RFU, CREB1 / Fold change vs veh, CREB1 / RFU, DNAJC13 / Fold change vs veh, DNAJC13 / RFU, GNAQ / Fold change vs veh, GNAQ / RFU, CDK5R1 / Fold change vs veh, CDK5R1 / RFU, ZRANB3 / Fold change vs veh, ZRANB3 / RFU, CUL4A / Fold change vs veh, CUL4A / RFU, CCNY / Fold change vs veh, CCNY / RFU, UFL1 / Fold change vs veh, UFL1 / RFU, COG3 / Fold change vs veh, COG3 / RFU, DIAPH2 / Fold change vs veh, DIAPH2 / RFU, SKA2 / Fold change vs veh, SKA2 / RFU, AFF3 / Fold change vs veh, AFF3 / RFU, LMF1 / Fold change vs veh, LMF1 / RFU, IPO11 / Fold change vs veh, IPO11 / RFU, DFFB / Fold change vs veh, DFFB / RFU, FOXP1 / Fold change vs veh, FOXP1 / RFU, CARD8 / Fold change vs veh, CARD8 / RFU, STRN3 / Fold change vs veh, STRN3 / RFU, ADK / Fold change vs veh, ADK / RFU, RASSF2 / Fold change vs veh, RASSF2 / RFU, WIPF1 / Fold change vs veh, WIPF1 / RFU, LARP1B / Fold change vs veh, LARP1B / RFU, RASA1 / Fold change vs veh, RASA1 / RFU, RB1 / Fold change vs veh, RB1 / RFU, PPFIA1 / Fold change vs veh, PPFIA1 / RFU, MAT2A / Fold change vs veh, MAT2A / RFU, CCT5 / Fold change vs veh, CCT5 / RFU, WDR92 / Fold change vs veh, WDR92 / RFU, CUX1 / Fold change vs veh, CUX1 / RFU, TTC7A / Fold change vs veh, TTC7A / RFU, TMEM135 / Fold change vs veh, TMEM135 / RFU, DEPTOR / Fold change vs veh, DEPTOR / RFU, CPM / Fold change vs veh, CPM / RFU, DNAJB6 / Fold change vs veh, DNAJB6 / RFU, CACNA2D3 / Fold change vs veh, CACNA2D3 / RFU, DTX4 / Fold change vs veh, DTX4 / RFU, TFCP2 / Fold change vs veh, TFCP2 / RFU, GMCL1 /// GMCL1P1 / Fold change vs veh, GMCL1 /// GMCL1P1 / RFU, AEBP2 / Fold change vs veh, AEBP2 / RFU, SNHG1 /// SNORD22 /// SNORD25 /// SNORD26 /// SNORD27 /// SNORD28 /// SNORD29 /// SNORD31 / Fold change vs veh, SNHG1 /// SNORD22 /// SNORD25 /// SNORD26 /// SNORD27 /// SNORD28 /// SNORD29 /// SNORD31 / Fold change (Aza/veh), C12orf56 (ProbeSet 11735607_a_at) / Fold change (ACY-1035/veh), C12orf56 (ProbeSet 11735607_a_at) / Fold change (Aza/veh), FGFR1OP (ProbeSet 11751329_s_at) / Fold change (ACY-1035/veh), FGFR1OP (ProbeSet 11751329_s_at) / Fold change (Aza/veh), VPS36 (ProbeSet 11739960_a_at) / Fold change (ACY-1035/veh), VPS36 (ProbeSet 11739960_a_at) / RFU SYPL1 (11715823_x_at) / Fold change /veh SYPL1 (11715823_x_at) / RFU IGFBP7 (11715501_s_at) / Fold change /veh IGFBP7 (11715501_s_at) / RFU REEP3 (11722064_at) / Fold change /veh REEP3 (11722064_at) / RFU IGLL1 (11728026_x_at) / Fold change /veh IGLL1 (11728026_x_at): dose or concentration left out as unconfirmed
Settings: MV-4-11 cells, 48 hours

Nc1ncn([C@@H]2O[C@H](CO)[C@@H](O)[C@H]2O)c(=O)n1 [azacitidine]
RFU SAMD14 (11745864_x_at): 17.52 RFU
